In patent US10392404B2, “Compounds and compositions as kinase inhibitors” (NOVARTIS AG, priority 2014, dated 2019):

Columns and labels:
[1] = biological target: T1, C-RAF (Homo sapiens, UniProt P04049, Y340E/Y341E); assay: In vitro Raf activity determination (Alpha Screen, biotinylated kinase-dead MEK1 substrate), C-Raf; format: biochemical; conditions: c-Raf approximately 4 nM; ATP 1 μM; pre-incubation 60 minutes; reaction 1 hour at room temperature
T1 construct: His tag (implied by nickel chromatography) (cleaved yes); StrepII tag (cleaved yes); made in house; host or cells: Sf9 insect cells (baculovirus), CRAF and h14-3-3 zeta co-expressed; MEK1 substrate from E. coli
T1 sequence (P04049 whole entry Y340E/Y341E): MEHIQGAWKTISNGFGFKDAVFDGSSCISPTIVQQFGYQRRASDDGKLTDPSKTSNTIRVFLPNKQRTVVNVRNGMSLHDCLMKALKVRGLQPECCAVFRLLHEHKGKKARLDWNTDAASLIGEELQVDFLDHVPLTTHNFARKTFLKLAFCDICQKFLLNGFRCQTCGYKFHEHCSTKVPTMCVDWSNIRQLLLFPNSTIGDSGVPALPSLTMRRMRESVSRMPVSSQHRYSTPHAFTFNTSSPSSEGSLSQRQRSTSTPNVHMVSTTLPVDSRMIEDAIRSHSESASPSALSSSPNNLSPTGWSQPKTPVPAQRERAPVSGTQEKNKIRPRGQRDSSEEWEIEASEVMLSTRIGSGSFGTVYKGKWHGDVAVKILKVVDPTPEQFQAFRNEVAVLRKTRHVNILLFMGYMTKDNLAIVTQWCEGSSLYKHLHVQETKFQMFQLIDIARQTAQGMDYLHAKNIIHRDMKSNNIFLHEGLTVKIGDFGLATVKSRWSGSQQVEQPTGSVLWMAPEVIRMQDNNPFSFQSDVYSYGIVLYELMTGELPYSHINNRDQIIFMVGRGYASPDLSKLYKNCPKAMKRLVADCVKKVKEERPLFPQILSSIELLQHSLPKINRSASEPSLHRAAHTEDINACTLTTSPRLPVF
T1 sequence (P63104 whole entry partner): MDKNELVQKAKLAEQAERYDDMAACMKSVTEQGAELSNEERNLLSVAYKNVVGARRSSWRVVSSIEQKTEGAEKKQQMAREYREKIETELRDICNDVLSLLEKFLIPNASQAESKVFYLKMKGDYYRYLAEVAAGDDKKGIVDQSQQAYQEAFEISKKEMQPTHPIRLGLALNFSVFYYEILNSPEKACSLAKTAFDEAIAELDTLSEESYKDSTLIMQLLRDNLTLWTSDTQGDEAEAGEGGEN
Procedure, shortened: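 Full-length C-Raf carrying Y340E/Y341E, co-expressed with 14-3-3ζ in Sf9 cells, at approximately 4 nM, with approximately 10 nM biotinylated kinase-dead MEK1 (K97R) and 1 μM ATP, pH 7.5. Compound preincubated 60 min, reaction 1 hour at room temperature. Phospho-MEK read by AlphaScreen; IC50 by non-linear regression.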

[2] = biological target: T2, b-Raf (V600E) (Homo sapiens, UniProt P15056, V600E); assay: In vitro Raf activity determination (Alpha Screen, biotinylated kinase-dead MEK1 substrate), B-Raf; format: biochemical; conditions: b-Raf (V600E) approximately 4 pM; ATP 10 μM; pre-incubation 60 minutes; reaction 3 hours at room temperature
T2 construct: made in house
T2 sequence (P15056 whole entry V600E): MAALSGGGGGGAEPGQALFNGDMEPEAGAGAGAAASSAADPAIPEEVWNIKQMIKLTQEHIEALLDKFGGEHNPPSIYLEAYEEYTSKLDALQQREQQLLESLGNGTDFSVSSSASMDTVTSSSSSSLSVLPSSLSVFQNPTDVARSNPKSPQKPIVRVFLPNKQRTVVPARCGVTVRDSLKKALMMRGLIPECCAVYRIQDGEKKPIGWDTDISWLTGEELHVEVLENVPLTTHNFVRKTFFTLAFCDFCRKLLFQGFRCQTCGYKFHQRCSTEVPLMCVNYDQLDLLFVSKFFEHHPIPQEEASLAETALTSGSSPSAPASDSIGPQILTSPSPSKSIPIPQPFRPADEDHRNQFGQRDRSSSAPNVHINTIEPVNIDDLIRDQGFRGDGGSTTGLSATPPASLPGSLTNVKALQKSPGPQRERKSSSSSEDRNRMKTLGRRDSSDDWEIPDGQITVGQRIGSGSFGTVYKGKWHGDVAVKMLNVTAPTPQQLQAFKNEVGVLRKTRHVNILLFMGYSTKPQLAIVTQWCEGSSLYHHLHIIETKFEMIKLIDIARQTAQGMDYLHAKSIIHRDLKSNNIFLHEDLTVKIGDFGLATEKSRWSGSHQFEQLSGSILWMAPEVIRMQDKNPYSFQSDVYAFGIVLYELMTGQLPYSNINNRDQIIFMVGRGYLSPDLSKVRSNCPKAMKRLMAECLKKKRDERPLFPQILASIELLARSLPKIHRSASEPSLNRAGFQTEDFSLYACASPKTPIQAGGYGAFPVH
Procedure, shortened: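 Activated b-Raf(V600E) (~4 pM) pre-incubated 60 min with compound and biotinylated kinase-dead (K97R) MEK1 (~10 nM), then reacted 3 h at room temperature with 10 μM ATP in 50 mM Tris pH 7.5, 15 mM MgCl2, 0.01% BSA, 1 mM DTT. Phospho-MEK detected by AlphaScreen; IC50 by non-linear regression.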

SMILES | IC50 [1] | IC50 [2]
Cc1ncc(NC(=O)c2cnnc(C(C)(C)C#N)c2)cc1-c1cnc(N2CCOCC2)c(C#N)c1 [Example 207, N-(5′-cyano-2-methyl-6′-morpholino-[3,3′-bipyridin]-5-yl)-6-(2-cyanopropan-2-yl)pyridazine-4-carboxamide] | 1.35 nM | 6.14 nM
COCCNc1ncc(-c2cc(NC(=O)c3ccnc(C(C)(C)O)c3)cnc2C)cc1C#N [Example 210, N-(5′-cyano-6′-((2-methoxyethyl)amino)-2-methyl-[3,3′-bipyridin]-5-yl)-2-(2-hydroxypropan-2-yl)isonicotinamide] | 5.97 nM | 36 nM
Cc1ccc(NC(=O)c2ccnc(C(F)(F)F)c2)cc1-c1cnc(N2CC(C)(O)C2)c(C#N)c1 [Example 212, N-(3-(5-cyano-6-(3-hydroxy-3-methylazetidin-1-yl)pyridin-3-yl)-4-methylphenyl)-2-(trifluoromethyl) isonicotinamide] | 0.32 nM | 1.15 nM
Cc1ccc(NC(=O)c2cnnc(C(F)(F)F)c2)cc1-c1cnc(N2CC(C)(O)C2)c(C#N)c1 [Example 213] | 1.78 nM | 8.79 nM
Cc1ccc(NC(=O)c2cnnc(C(C)(C)C#N)c2)cc1-c1cnc(N2CC(C)(O)C2)c(C#N)c1 [Example 214, N-(3-(5-cyano-6-(3-hydroxy-3-methylazetidin-1-yl)pyridin-3-yl)-4-methylphenyl)-6-(2-cyanopropan-2-yl)pyridazine-4-carboxamide] | 0.741 nM | 4.72 nM
Cc1ccc(NC(=O)c2ccnc(C(C)(C)O)c2)cc1-c1cnc(N2CC(C)(O)C2)c(C#N)c1 [Example 215, N-(3-(5-cyano-6-(3-hydroxy-3-methylazetidin-1-yl)pyridin-3-yl)-4-methylphenyl)-2-(2-hydroxypropan-2-yl)isonicotinamide] | 1.28 nM | 8.05 nM
Cc1ccc(NC(=O)c2ccnc(S(C)(=O)=O)c2)cc1-c1cnc(N2CC(C)(O)C2)c(C#N)c1 [Example 217, N-(3-(5-cyano-6-(3-hydroxy-3-methylazetidin-1-yl)pyridin-3-yl)-4-methylphenyl)-2-(methylsulfonyl) isonicotinamide] | 1.07 nM | 6.78 nM
Cc1ccc(NC(=O)c2cccc(S(C)(=O)=O)c2)cc1-c1cnc(N2CC(C)(O)C2)c(C#N)c1 [Example 218, N-(3-(5-cyano-6-(3-hydroxy-3-methylazetidin-1-yl)pyridin-3-yl)-4-methylphenyl)-3-(methylsulfonyl) benzamide] | 0.617 nM | 3.58 nM

More lines, in order of falling IC50 [1], values ahead:

IC50 [1] | IC50 [2] | SMILES
0.886 nM | 3.07 nM | Cc1ccc(NC(=O)c2cnnc(C(C)(C)C#N)c2)cc1-c1cnc(N2CCNCC2)c(C#N)c1 [Example 211, N-(3-(5-cyano-6-(piperazin-1-yl)pyridin-3-yl)-4-methylphenyl)-6-(2-cyanopropan-2-yl)pyridazine-4-carboxamide]
0.777 nM | 4.17 nM | COCCNc1ncc(-c2cc(NC(=O)c3ccnc(C(C)(C)O)c3)ccc2C)cc1C#N [Example 209, N-(3-(5-cyano-6-((2-methoxyethyl)amino)pyridin-3-yl)-4-methylphenyl)-2-(2-hydroxypropan-2-yl)isonicotinamide]
0.691 nM | 4.73 nM | Cc1ccc(NC(=O)c2ccnc(C(F)F)c2)cc1-c1cnc(N2CC(C)(O)C2)c(C#N)c1 [Example 216, N-(3-(5-cyano-6-(3-hydroxy-3-methylazetidin-1-yl)pyridin-3-yl)-4-methylphenyl)-2-(difluoromethyl) isonicotinamide]
0.0967 nM | 0.397 nM | Cc1ccc(NC(=O)c2cnnc(C(F)(F)F)c2)cc1-c1cnc(N2CCOCC2)c(C#N)c1 [Example 208, N-(3-(5-cyano-6-morpholinopyridin-3-yl)-4-methylphenyl)-6-(trifluoromethyl) pyridazine-4-carboxamide]
